Molecules are shown by their SMILES.

Here are results for 33 compounds from patent publication US6476056B2, “Heterocycle substituted aryloxyaniline derivatives and their use as MDR ligands” (Taisho Pharmaceutical Co., Ltd., priority 1997, dated 2002).

The assay concerns the target T1, MDR (Rattus norvegicus, UniProt P16257).
T1 construct: Crude mitochondria fractions prepared from rat cerebral cortex were used as a receptor sample; from tissue; host or cells: rat cerebral cortex, crude mitochondria fraction
Nature of the assay: MDR receptor binding assay ([3H]PK11195 displacement). The note with it: 50% inhibition of [3H]PK11195 (2 nM) binding; crude mitochondria fraction from rat cerebral cortex; 4° C., 90 minutes. The protocol:
Experiment [MDR Receptor Binding Assay]
Crude mitochondria fractions prepared from rat cerebral cortex were used as a receptor sample, and [^3H]PK11195 was used as a [^3H]-labeled ligand.
A binding assay using the [^3H]-labeled ligand was carried out according to the following method as described in Journal of Pharmacology and Experimental Therapeutics, 262, 971(1992).
Preparation of Receptor Sample: Rat cerebral cortex was homogenized using a Teflon-coated homogenizer in a 10 mM HEPES buffer (pH 7.4) containing 0.32 M sucrose in ten volumes of the wet weight. The homogenate was centrifuged at 900×g for 10 minutes, and the resulting supernatant was centrifuged at 9,000×g for 10 minutes. The precipitate was suspended in a HEPES buffer to give a protein concentration of 1 mg/ml, and centrifuged at 12,000×g for 10 minutes. The resulting precipitate was suspended in a 50 mM HEPES buffer (pH 7.4) to give a crude mitochondria fraction.
MDR Binding Assay: Mitochondria sample (1.0 mg protein/ml), [^3H]PK11195 (2 nM) and the test drug were reacted at 4° C. for 90 minutes. After completion of the reaction, the reaction mixture was filtered with suction through a glass filter (GF/B) treated with 0.3% polyethyleneimine, and the radioactivity on the filter was measured by a liquid scintillation spectrometer.
The binding at the reaction in the presence of 10 μM PK11195 was defined as non-specific binding of [3H]PK11195, and the difference between total binding and non-specific binding was defined as specific binding.

Consider `COc1ccccc1CN(C(=O)C(F)(F)F)c1ccccc1Oc1ccccc1` [Compound 080], for which the concentration for half-maximal inhibition (IC50) – broadly, the midpoint of a concentration-inhibition curve – amounted to 4.64 nM. This lies in the single-digit nanomolar range.
Next, `COc1ccccc1CN(C(=O)CCl)c1ccccc1Oc1ccccc1` [Compound 081, N-chloroacetyl-N-(2-methoxybenzyl)-2-phenoxyaniline]: 0.343 nM; `COc1ccccc1CN(C(=O)COC(C)=O)c1ccccc1Oc1ccccc1` [Compound 082, N-acetoxyacetyl-N-(2-methoxybenzyl)-2-phenoxyaniline]: 8.9 nM.
Next, `COc1ccccc1CN(C(=O)CO)c1ccccc1Oc1ccccc1` [Compound 085, N-Hydroxyacetyl-N-(2-methoxybenzyl)-2-phenoxyaniline]: 3.85 nM.
Consider `COc1ccccc1CN(C=O)c1ccccc1Oc1ccccc1` [Compound 087], for which the IC50 was determined as 0.572 nM. Against the preceding compound, the IC50 is about 6.7-fold lower.
Next, `CCOc1ccccc1CN(C=O)c1ccccc1Oc1ccccc1` [Compound 088]: 0.163 nM; `COc1ccccc1CN(C(N)=O)c1ccccc1Oc1ccccc1` [Compound 089, N-Aminocarbonyl-N-(2-methoxybenzyl)-2-phenoxyaniline]: 3.51 nM.
Then `CNC(=O)N(Cc1ccccc1OC)c1ccccc1Oc1ccccc1` [Compound 090, N-(2-Methoxybenzyl)-N-(N-methylaminocarbonyl)-2-phenoxyaniline], with 4.64 nM; and `CCOc1ccccc1CN(C(=O)NC)c1ccccc1Oc1ccccc1` [Compound 091], with 1.83 nM; and `CCCOc1ccccc1CN(C(=O)NC)c1ccccc1Oc1ccccc1` [Compound 092], with 0.722 nM.
`CNC(=O)N(Cc1ccccc1OC(C)C)c1ccccc1Oc1ccccc1` [Compound 093] had an IC50 of 0.87 nM.
Then `CCCCCOc1ccccc1CN(C(=O)NC)c1ccccc1Oc1ccccc1` [Compound 094], with 0.925 nM; and `CNC(=O)N(Cc1cc(OC)ccc1OC)c1ccccc1Oc1ccccc1` [Compound 095, N-(2,5-Dimethoxybenzyl)-N-(N-methylaminocarbonyl)-2-phenoxyaniline], with 3.77 nM; and `COC(=O)N(Cc1ccccc1OC)c1ccccc1Oc1ccccc1` [Compound 098, N-(2-Methoxybenzyl)-N-methoxycarbonyl-2-phenoxyaniline], with 0.498 nM.
Then `CCOC(=O)N(Cc1ccccc1OC)c1ccccc1Oc1ccccc1` [Compound 099], with 0.87 nM; and `COc1ccccc1CN(C(C)=O)c1ccccc1Oc1ccccc1C` [Compound 100], with 0.112 nM.
`COc1ccccc1CN(C(C)=O)c1ccccc1Oc1cccc(C)c1` [Compound 101] had an IC50 of 0.285 nM.
Then `COc1ccccc1CN(C(C)=O)c1ccccc1Oc1ccc(C)cc1` [Compound 102], with 0.123 nM.
Next, `COc1ccccc1CN(C(C)=O)c1ccccc1Oc1ccccc1OC` [Compound 103]: 0.722 nM; `COc1cccc(Oc2ccccc2N(Cc2ccccc2OC)C(C)=O)c1` [Compound 104]: 0.343 nM.
Next, `COc1ccc(Oc2ccccc2N(Cc2ccccc2OC)C(C)=O)cc1` [Compound 105]: 0.163 nM; `COc1ccccc1CN(C(C)=O)c1ccccc1Oc1cccc(F)c1` [Compound 108]: 0.413 nM.
For the compound `COc1ccccc1CN(C(C)=O)c1ccccc1Oc1ccc(F)cc1` [Compound 109], the half-maximal inhibitory concentration (IC50) was 0.285 nM.
Next, `COc1ccccc1CN(C(C)=O)c1ccccc1Oc1ccc(Cl)cc1` [Compound 110]: 8.9 nM.
Next, `COc1ccccc1CN(C(C)=O)c1ccccc1Oc1ccc(F)cc1F` [Compound 112]: 0.376 nM; `COc1ccccc1CN(C(C)=O)c1ccc(F)cc1Oc1ccccc1` [Compound 116]: 0.343 nM.
Next, `COc1ccccc1CN(C(C)=O)c1cc(F)ccc1Oc1ccccc1` [Compound 117]: 0.792 nM.
Consider `COc1ccccc1CN(C(C)=O)c1c(F)cccc1Oc1ccccc1` [Compound 118], for which the 50% inhibitory concentration (IC50) was 0.498 nM.
In the case of `COc1ccccc1CN(C(C)=O)c1ccc(Cl)cc1Oc1ccccc1` [Compound 120], the IC50 was found to be 0.196 nM.
Take `COc1ccccc1CN(C(C)=O)c1cc(Cl)ccc1Oc1ccccc1` [Compound 121]: the IC50 was found to be 2.01 nM.
Then `COc1ccccc1CN(C(C)=O)c1cc(C)ccc1Oc1ccccc1` [Compound 124], with 0.343 nM; and `COc1ccc(Oc2ccccc2)c(N(Cc2ccccc2OC)C(C)=O)c1` [Compound 126], with 8.11 nM.
Next, `COc1ccccc1CN(C(C)=O)c1ccc(Oc2ccccc2)cc1Oc1ccccc1` [Compound 127]: 3.51 nM.
